Source: the NIST ThermoML archive (doi:10.1021/je200811n)

Conditions: Hot wire method

C=C(F)C(F)(F)F [2,3,3,3-tetrafluoro-1-propene]
Conditions	thermal conductivity [W/m/K]
241.92 K, 6085 kPa, Liquid	0.08525
241.92 K, 10976 kPa, Liquid	0.08707
241.93 K, 15764 kPa, Liquid	0.08965
241.94 K, 69 kPa, Gas	0.00942
241.95 K, 77 kPa, Gas	0.00944
241.95 K, 20987 kPa, Liquid	0.09158
241.97 K, 86 kPa, Gas	0.00944
242 K, 880 kPa, Liquid	0.08218
242.01 K, 6088 kPa, Liquid	0.08496
242.01 K, 10981 kPa, Liquid	0.08718
242.02 K, 15753 kPa, Liquid	0.08918
242.19 K, 69 kPa, Gas	0.00931
242.2 K, 78 kPa, Gas	0.00934
242.22 K, 87 kPa, Gas	0.00935
242.34 K, 883 kPa, Liquid	0.08243
242.34 K, 10985 kPa, Liquid	0.08732
242.34 K, 15757 kPa, Liquid	0.08916
242.35 K, 6087 kPa, Liquid	0.08514
242.35 K, 20980 kPa, Liquid	0.09106
242.35 K, 21022 kPa, Liquid	0.09102
242.46 K, 15754 kPa, Liquid	0.08876
242.47 K, 69 kPa, Gas	0.00926
242.47 K, 78 kPa, Gas	0.00926
242.47 K, 886 kPa, Liquid	0.08219
242.47 K, 6087 kPa, Liquid	0.08483
242.47 K, 10989 kPa, Liquid	0.08709
242.5 K, 87 kPa, Gas	0.00928
242.52 K, 87 kPa, Gas	0.00925
242.54 K, 68 kPa, Gas	0.00927
242.54 K, 76 kPa, Gas	0.00929
242.8 K, 20976 kPa, Liquid	0.09105
242.81 K, 10986 kPa, Liquid	0.08711
242.81 K, 15750 kPa, Liquid	0.08896
242.81 K, 21021 kPa, Liquid	0.09106
242.83 K, 6086 kPa, Liquid	0.08481
242.85 K, 891 kPa, Liquid	0.08226
242.88 K, 87 kPa, Gas	0.00926
242.9 K, 77 kPa, Gas	0.00929
242.91 K, 68 kPa, Gas	0.0093
242.94 K, 15756 kPa, Liquid	0.08889
242.96 K, 10985 kPa, Liquid	0.08695
242.98 K, 6086 kPa, Liquid	0.08445
243 K, 892 kPa, Liquid	0.082
243.28 K, 86 kPa, Gas	0.00928
243.29 K, 21014 kPa, Liquid	0.09132
243.3 K, 77 kPa, Gas	0.0093
243.3 K, 20966 kPa, Liquid	0.09102
243.31 K, 69 kPa, Gas	0.00933
243.32 K, 10987 kPa, Liquid	0.08693
243.32 K, 15749 kPa, Liquid	0.0891
243.35 K, 6084 kPa, Liquid	0.08459
243.38 K, 894 kPa, Liquid	0.08224
243.47 K, 15756 kPa, Liquid	0.08884
243.5 K, 10983 kPa, Liquid	0.08672
243.53 K, 6087 kPa, Liquid	0.0843
243.57 K, 898 kPa, Liquid	0.08198
243.7 K, 86 kPa, Gas	0.00931
243.73 K, 78 kPa, Gas	0.00931
243.75 K, 69 kPa, Gas	0.00935
243.84 K, 20954 kPa, Liquid	0.09109
243.85 K, 21009 kPa, Liquid	0.09114
243.87 K, 15753 kPa, Liquid	0.08885
243.9 K, 10980 kPa, Liquid	0.0868
243.94 K, 6082 kPa, Liquid	0.08438
243.98 K, 898 kPa, Liquid	0.08174
244.07 K, 15757 kPa, Liquid	0.08866
244.11 K, 10979 kPa, Liquid	0.08646
244.16 K, 86 kPa, Gas	0.00935
244.16 K, 6088 kPa, Liquid	0.08418
244.2 K, 78 kPa, Gas	0.00935
244.21 K, 900 kPa, Liquid	0.08153
244.22 K, 69 kPa, Gas	0.00937
251.4 K, 100 kPa, Gas	0.0102
251.41 K, 121 kPa, Gas	0.01025
251.42 K, 129 kPa, Gas	0.01024
251.64 K, 100 kPa, Gas	0.01009
251.65 K, 121 kPa, Gas	0.01014
251.66 K, 129 kPa, Gas	0.01016
251.9 K, 121 kPa, Gas	0.00997
251.91 K, 100 kPa, Gas	0.01002
251.91 K, 121 kPa, Gas	0.01007
251.91 K, 130 kPa, Gas	0.01
251.92 K, 129 kPa, Gas	0.01009
251.93 K, 100 kPa, Gas	0.00998
252.23 K, 121 kPa, Gas	0.00999
252.23 K, 130 kPa, Gas	0.00999
252.28 K, 100 kPa, Gas	0.01003
252.6 K, 122 kPa, Gas	0.01002
252.6 K, 130 kPa, Gas	0.01
252.67 K, 100 kPa, Gas	0.01006
253 K, 129 kPa, Gas	0.01005
253.01 K, 121 kPa, Gas	0.01006
253.09 K, 100 kPa, Gas	0.01007
253.43 K, 129 kPa, Gas	0.01006
253.45 K, 121 kPa, Gas	0.01008
253.53 K, 100 kPa, Gas	0.0101
261.38 K, 995 kPa, Liquid	0.07662
261.4 K, 996 kPa, Liquid	0.07661

Liquid
Conditions	thermal conductivity [W/m/K]
243.15 K	0.08189
253.15 K	0.07836
